# According to ChEMBL document CHEMBL5729321, “Compound exhibiting enteropeptidase inhibitory activity” (2022):
# Target: Enteropeptidase (Homo sapiens, UniProt P98073)
# Test: Enteropeptidase Inhibition Assay: The inhibitory activity of the enteropeptidase inhibitor synthesized using the purified Recombinant Human Enteropeptidase and the substrate Acetyl-Asp-Asp-Asp-Asp-Lys-AFC (BioVision) was measured. 7.2 ng/mL of Enteropeptidase diluted with a buffer (20 mM Tris, 50 mM NaCl, pH 7.5) in a 96 well plate (Costar), 30 μM of Acetyl-Asp-Asp-Asp-Asp-Lys-AFC, several concentrations of Enteropeptidase inhibitors (1% DMSO concentration) were dispensed such that a final volume was 100 μL, and then the enzyme reaction was carried out at 30° C. for 1 hour. At this time, 1% DMSO, a substrate and Enteropeptidase instead of the compound were dispensed onto positive control wells, and 1% DMSO and a substrate were dispensed onto negative control wells. The enzyme reaction was started using an excitation wavelength of 380 nm and an emission wavelength of 500 nm in a fluorescence spectrometer, and then the rate of increase in fluorescence (milli-units per min) between 20 and 60 minutes was measured.
# Sequence of Enteropeptidase (P98073 2-784 limits assumed): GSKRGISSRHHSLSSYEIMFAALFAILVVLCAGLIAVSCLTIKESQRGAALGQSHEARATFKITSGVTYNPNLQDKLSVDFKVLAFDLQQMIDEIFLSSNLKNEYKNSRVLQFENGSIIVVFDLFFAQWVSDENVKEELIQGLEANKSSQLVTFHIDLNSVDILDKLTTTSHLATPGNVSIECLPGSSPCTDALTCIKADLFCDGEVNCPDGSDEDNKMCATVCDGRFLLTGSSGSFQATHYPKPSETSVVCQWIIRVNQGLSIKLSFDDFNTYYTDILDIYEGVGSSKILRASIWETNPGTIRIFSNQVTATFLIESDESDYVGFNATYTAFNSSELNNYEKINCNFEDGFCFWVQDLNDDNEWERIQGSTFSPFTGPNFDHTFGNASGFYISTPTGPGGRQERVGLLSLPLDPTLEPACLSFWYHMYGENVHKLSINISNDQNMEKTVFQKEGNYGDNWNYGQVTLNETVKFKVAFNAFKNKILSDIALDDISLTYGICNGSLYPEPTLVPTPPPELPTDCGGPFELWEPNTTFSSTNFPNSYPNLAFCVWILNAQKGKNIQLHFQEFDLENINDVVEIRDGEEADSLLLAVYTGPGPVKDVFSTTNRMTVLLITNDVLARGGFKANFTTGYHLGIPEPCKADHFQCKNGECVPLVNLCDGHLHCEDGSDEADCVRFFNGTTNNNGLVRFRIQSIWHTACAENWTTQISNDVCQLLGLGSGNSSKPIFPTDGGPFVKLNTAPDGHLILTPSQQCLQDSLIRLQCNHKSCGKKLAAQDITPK
# Sequence of Enteropeptidase (P98073 785-1019 limits assumed): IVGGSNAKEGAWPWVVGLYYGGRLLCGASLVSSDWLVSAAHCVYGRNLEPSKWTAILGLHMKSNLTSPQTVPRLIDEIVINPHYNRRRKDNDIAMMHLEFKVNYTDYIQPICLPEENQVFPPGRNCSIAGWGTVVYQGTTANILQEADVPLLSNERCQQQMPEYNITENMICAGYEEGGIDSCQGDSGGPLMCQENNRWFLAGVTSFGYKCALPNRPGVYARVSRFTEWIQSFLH
row,Ki,Compound
1,8.2 nM,N=C(N)c1ccc(OC(=O)c2cnc(N3CCC(C(=O)N[C@@H](CC(=O)OCc4ccccc4)C(=O)OCc4ccccc4)CC3)s2)c(F)c1
2,0.68 nM,CCN(CCC(=O)O)c1ncc(C(=O)Oc2ccc(C(=N)N)cc2F)s1
